Results as given in US20060069040A1, “GHB compositions” (priority 2004, published 2006).
Where two headings read alike, the source gives them in different places.

How the values were obtained:
CD-1 male mice [1] = assay: Passivity test (sleep induction and sleep time); type: in vivo; settings: for Effect on GHB sleep time: Example 6: 7.93 mmol/kg of named agent mixed in solution with GHB 7.93 mmol/kg, oral gavage, 8 mice; for Effect on GHB induced sleep time: 800 mg/kg i.p. of named compound followed immediately by GHB 800 mg/kg i.p.; for GHB induced sleep time: n=6/group, GHB 800 mg/kg i.p. alone or immediately after 800 mg/kg i.p. of the named compound; for Passivity test scores (2-8): 10 minutes after injection, 6 non-fasting mice, 0-normal, 8-no struggle
Procedure: (§1) CD-1 male mice (30-40 g) were housed 3 to 4 per cage in the animal care facility on a 12 hour light dark cycle with free access to water and food for at least 1 week before testing.
The passivity test developed by Irwing was used to determine sleep time. After GHB administration, the mice were placed in an unusual position and a score of 2, 4, 6, or 8 was given when the mice ceased to struggle against respectively being suspended vertically, rotated horizontally onto their backs, suspended by their hind limbs or suspended by their forelimbs. Scores on the passivity test were determined every 10 minutes after GHB administration. […] The time between scores of 8 and 2 was defined as the total sleep time.
(§2) Statistical significance between control and treated groups at each time point in the present study was determined by student's t-test. Note that values of motor activity were expressed as a percentage of the baseline value which was normalized to 100%.
The optimal dose of GHB for inducing sleep was determined with the passivity test. GHB was dissolved in 0.9% NaCl and 1% Tween 80 and delivered intraperitoneally (i.p.) to 4 groups of 6 mice that had not been fasting. Each group received either 200 mg/kg, 400 mg/kg, 600 mg/kg and 800 mg/kg. […] For this reason, this dose was used in the initial exploratory studies.

CD-1 male mice [2] = type: in vivo; settings: for Effect on GHB induced motor inhibition: Example 3: named compound 800 mg/kg i.p. 2 or 15 minutes before GHB 800 mg/kg i.p.; for Effect on motor depression by oral GHB: Example 5: named compound 1200 mg/kg i.p. with GHB 1200 mg/kg orally
Procedure: as §1
The Rota-rod is a validated and sensitive tool that has been developed to document neurological deficits after pharmacological treatments. In this test, mice are placed on an accelerating Rota-rod whose revolutions per minute increase from 4 to 40 cycles per minute in about 4 minutes. The time it takes for the mice to fall off the rod is the end point of the test. Initially, the mice were given 3 practice runs on the rod to familiarize themselves with the test procedure. The time that mice remained on the rod was usually between five and ten minutes. A baseline measure was then made, the test drug given and the test procedure run every 20 minutes starting at time 0, immediately after drug administration. The mice were tested for 160 minutes after GHB administration although in some experiments recordings were made for as long as 280 minutes. Motor activity was expressed as a percentage of the baseline value. The time it took the mice to fall off the rod at a given time point after drug administration was divided by the time it took at baseline.
as §2

[3] = previous work (ref. 7); rats, tracer doses of GHB, intravenous infusion; cited from earlier work
male Wistar rats [4] = assay: Core body temperature (Tb) and locomotor activity (LMA) recording by implanted transmitter; type: in vivo; settings: IP dosing at ZT19, GHB 200 mg/kg in all drug conditions, comparators and ZT hours in the value
[5] = man, GHB given orally; cited from earlier work
male Wistar rats [6] = assay: EEG/EMG sleep recording after IP dosing; settings: for NR bout duration (NRBD): lights on
[7] = cited from earlier work
[8] = Table 2: i.p., all compounds 800 mg/kg, mice not fasting, n=6, 2′ or 15′ in label = preincubation before GHB
[9] = Table 3: oral, GHB 800 mg/kg, PA 66 mg/kg, mice fasting 12 hours, n=6
[10] = Table 4: GHB orally, GAL/GL/GA intraperitoneally, all 1200 mg/kg, mice fasting 1 hour, n=6
[11] = rats, IP dosing at ZT19, comparators and ZT hours in the value

SMILES: O=C([O-])[C@@H](O)[C@@H](O)[C@H](O)[C@@H](O)CO.[Na+] [G, L-gulonic acid sodium salt]
- Effect on GHB sleep time (CD-1 male mice [1]): almost doubled the sleep time
- Effect on motor inhibition produced by GHB (CD-1 male mice [2]; mouse, in vivo, po): significantly prolonged and deepened the motor inhibition produced by GHB
- Effect on motor performance on its own (CD-1 male mice [2]; mouse, in vivo, po): had no effect on motor performance
- Percent of motor activity after GHB administration, 0′ (CD-1 male mice [2]; mouse, in vivo, po): 168 ± 5%
- Percent of motor activity after GHB administration, 20′ (CD-1 male mice [2]; mouse, in vivo, po): 50 ± 24%
- Percent of motor activity after GHB administration, 40′ (CD-1 male mice [2]; mouse, in vivo, po): 303 ± 12%
- Percent of motor activity after GHB administration, 60′ (CD-1 male mice [2]; mouse, in vivo, po): 183 ± 4%
- Percent of motor activity after GHB administration, 80′ (CD-1 male mice [2]; mouse, in vivo, po): 156 ± 2%
- Percent of motor activity after GHB administration, 100′ (CD-1 male mice [2]; mouse, in vivo, po): 66 ± 9%
- Percent of motor activity after GHB administration, 160′ (CD-1 male mice [2]; mouse, in vivo, po): 126 ± 3%
- Percent of motor activity after GHB administration, 220′ (CD-1 male mice [2]; mouse, in vivo, po): 303 ± 23%
- Percent of motor activity after GHB administration, 280′ (CD-1 male mice [2]; mouse, in vivo, po): 141 ± 5%
- Effect on plasma half-life of GHB [3]: can extend the plasma half-life of GHB

SMILES: O=C([O-])[C@H](O)[C@@H](O)[C@H](O)[C@H](O)CO.[Na+] [GA, D-gluconic acid sodium salt]
- Effect on GHB induced sleep time (CD-1 male mice [1]; non-fasting mice): did not show an increase in GHB induced sleep time

SMILES: O=C1O[C@H](CO)[C@@H](O)[C@H](O)[C@H]1O [GAL, D-gluconic acid lactone]
- Effect on GHB sleep time (CD-1 male mice [1]): appeared to increase the sleep time
- GHB induced sleep time (CD-1 male mice [1]; non-fasting mice): 155 ± 11 min
- Effect on GHB induced motor inhibition (CD-1 male mice [2]; mice not fasting): most effectively potentiated GHB induced motor inhibition with significant effects at the 160 minute mark
- Effect on motor depression by oral GHB (CD-1 male mice [2]): further significantly enhanced
- Effect on motor inhibition produced by GHB (CD-1 male mice [2]; Example 6: named agent 7.93 mmol/kg orally together with GHB 7.93 mmol/kg): neither oral gluconic acid lactone or gulonolactone augmented the depressant effects of GHB

SMILES: O=C[C@H](O)[C@@H](O)[C@H](O)[C@H](O)C(=O)[O-].[Na+] [GCA, D-glucuronic acid sodium salt]
- Effect on GHB induced sleep time (CD-1 male mice [1]; non-fasting mice): did not show an increase in GHB induced sleep time
- Effect on GHB induced motor inhibition (CD-1 male mice [2]; mice not fasting): potentiated and prolonged the motor inhibition produced by GHB
- Effect on plasma half-life of GHB [3]: decreased the plasma half-life of GHB

SMILES: O=C([O-])CCCO.[Na+] [GHB, gamma-hydroxybutyrate sodium salt]
- Locomotor activity (LMA), hourly average (male Wistar rats [4]): significantly lower LMA compared to vehicle (ZT21)
- Plasma half-life [5]: about 45 minutes
- Passivity test scores (2-8) (CD-1 male mice [1]; GHB 200 mg/kg i.p.): 0
- Passivity test scores (2-8) (CD-1 male mice [1]; GHB 400 mg/kg i.p.): 2 ± 0.38
- Passivity test scores (2-8) (CD-1 male mice [1]; GHB 600 mg/kg i.p.): 4 ± 0.25
- Passivity test scores (2-8) (CD-1 male mice [1]; GHB 800 mg/kg i.p.): 8 ± 0.42
- Time to reliably induce sleep (CD-1 male mice [1]; GHB 800 mg/kg i.p., non-fasting mice): ≤ 10 min
- Sleep time (CD-1 male mice [1]; Table 5: orally, all compounds 7.93 mmol/kg, mice fasting 24 hours, n=8/group, mean ± S.E.M.): 35 ± 10 min
- GHB induced sleep time (CD-1 male mice [1]; non-fasting mice): 96.5 ± 5 min
- Seizure-like activity (CD-1 male mice [2]; GHB 1200 mg/kg orally, mice): appeared to induce seizure-like activity in many of the mice
- Percent of motor activity after GHB administration, 20′ (CD-1 male mice [2]; [8]): 0 ± 0%
- Percent of motor activity after GHB administration, 40′ (CD-1 male mice [2]; [8]): 0 ± 0%
- Percent of motor activity after GHB administration, 60′ (CD-1 male mice [2]; [8]): 0 ± 0%
- Percent of motor activity after GHB administration, 80′ (CD-1 male mice [2]; [8]): 20 ± 2%
- Percent of motor activity after GHB administration, 100′ (CD-1 male mice [2]; [8]): 35 ± 12%
- Percent of motor activity after GHB administration, 120′ (CD-1 male mice [2]; [8]): 65 ± 5%
- Percent of motor activity after GHB administration, 140′ (CD-1 male mice [2]; [8]): 113 ± 20%
- Percent of motor activity after GHB administration, 160′ (CD-1 male mice [2]; [8]): 124 ± 20%
- Percent of motor activity after GHB administration, 0′ (CD-1 male mice [2]; Table 2: i.p., all compounds 800 mg/kg, mice not fasting, n=6, 2′ or 15′ in label = preincubation before GHB, % of baseline, mean ± S.E.M.): 31 ± 7%
- Percent of motor activity after GHB administration (oral), 20′ (CD-1 male mice [2]; [9]): 0 ± 0%
- Percent of motor activity after GHB administration (oral), 40′ (CD-1 male mice [2]; [9]): 7 ± 3%
- Percent of motor activity after GHB administration (oral), 60′ (CD-1 male mice [2]; [9]): 12 ± 6%
- Percent of motor activity after GHB administration (oral), 80′ (CD-1 male mice [2]; [9]): 20 ± 8%
- Percent of motor activity after GHB administration (oral), 100′ (CD-1 male mice [2]; [9]): 26 ± 5%
- Percent of motor activity after GHB administration (oral), 160′ (CD-1 male mice [2]; [9]): 86 ± 1%
- Percent of motor activity after GHB administration (oral), 220′ (CD-1 male mice [2]; [9]): 90 ± 8%
- Percent of motor activity after GHB administration (oral), 280′ (CD-1 male mice [2]; [9]): 100 ± 7%
- Percent of motor activity after GHB administration, 20′ (CD-1 male mice [2]; [10]): 27 ± 19%
- Percent of motor activity after GHB administration, 40′ (CD-1 male mice [2]; [10]): 0 ± 0%
- Percent of motor activity after GHB administration, 60′ (CD-1 male mice [2]; [10]): 3 ± 2%
- Percent of motor activity after GHB administration, 80′ (CD-1 male mice [2]; [10]): 4 ± 1%
- Percent of motor activity after GHB administration, 100′ (CD-1 male mice [2]; [10]): 5 ± 4%
- Percent of motor activity after GHB administration, 160′ (CD-1 male mice [2]; [10]): 21 ± 10%
- Percent of motor activity after GHB administration, 220′ (CD-1 male mice [2]; [10]): 61 ± 12%
- Percent of motor activity after GHB administration, 0′ (CD-1 male mice [2]; Table 4: GHB orally, GAL/GL/GA intraperitoneally, all 1200 mg/kg, mice fasting 1 hour, n=6, mean ± S.E.M.): 58 ± 9%
- Duration of reproducible decrease in motor activity (CD-1 male mice [2]; mouse, in vivo): more than 100 minutes
- Percent of motor activity after GHB administration (oral), 0′ (CD-1 male mice [2]; mouse, in vivo): 51 ± 1%
- Percent of motor activity after GHB administration, 0′ (CD-1 male mice [2]; mouse, in vivo, po): 94 ± 9%
- Percent of motor activity after GHB administration, 20′ (CD-1 male mice [2]; mouse, in vivo, po): 2 ± 2%
- Percent of motor activity after GHB administration, 40′ (CD-1 male mice [2]; mouse, in vivo, po): 0 ± 0%
- Percent of motor activity after GHB administration, 60′ (CD-1 male mice [2]; mouse, in vivo, po): 4 ± 1%
- Percent of motor activity after GHB administration, 80′ (CD-1 male mice [2]; mouse, in vivo, po): 10 ± 2%
- Percent of motor activity after GHB administration, 100′ (CD-1 male mice [2]; mouse, in vivo, po): 22 ± 7%
- Percent of motor activity after GHB administration, 160′ (CD-1 male mice [2]; mouse, in vivo, po): 104 ± 26%
- Percent of motor activity after GHB administration, 220′ (CD-1 male mice [2]; mouse, in vivo, po): 122 ± 23%
- Percent of motor activity after GHB administration, 280′ (CD-1 male mice [2]; mouse, in vivo, po): 117 ± 13%
- Duration of depressed motor activity (CD-1 male mice [2]; oral GHB at 1200 mg/kg, mice): at least 220 minutes
- Rats that displayed SW activity (male Wistar rats [6]; immediately following IP dosing, 8 rats): Seven of 8
- Spike and wave (SW) activity in the EEG (male Wistar rats [6]; rats, IP dosing at ZT19, GHB 200 mg/kg in all drug conditions): elicited spike and wave activity (SW) in the EEG during the first hour following dosing
- Time spent awake (W), hourly (male Wistar rats [6]; [11]): reduced W compared to vehicle during ZT 21
- Time spent in non-REM (NR) sleep, hourly (male Wistar rats [6]; [11]): significantly greater than vehicle during ZT 21
- NR bout duration (NRBD) (male Wistar rats [6]; rats, ZT 1 and 3): increased NRBD compared to GHB+L-gul (ZT 1, 3), GHB+PA (60 mg/kg) (ZT 1, 3) and GHB+PA (120 mg/kg) (ZT 3)
- NR bout duration (NRBD) (male Wistar rats [6]; rats, ZT 5): significantly decreased NRBD during ZT 5 compared to GHB+L-gul and GHB+PA (120 mg/kg)

SMILES: O=C1O[C@H]([C@@H](O)CO)[C@H](O)[C@@H]1O [GL, L-gulono-γ-lactone]
- Effect on GHB sleep time (CD-1 male mice [1]): appeared to increase the sleep time
- Effect on motor depression by oral GHB (CD-1 male mice [2]): further significantly enhanced
- Effect on motor inhibition produced by GHB (CD-1 male mice [2]; mouse, in vivo, po): neither oral gluconic acid lactone or gulonolactone augmented the depressant effects of GHB

SMILES: O=C(O)Cc1ccccc1 [PA, phenylacetic acid]
- Effect on inhibitory effects of GHB on motor activity (CD-1 male mice [2]; Example 4: phenylacetic acid […] mg/kg mixed in solution with GHB 800 mg/kg, oral, vs GHB 800 mg/kg oral alone): significantly intensified and prolonged the inhibitory effects of GHB on motor activity

SMILES: O=C([O-])Cc1ccccc1.[Na+] [phenylacetate sodium salt]
- Solubility in saline [7]: can be readily dissolved in saline
